Laboratory results taken from ChEMBL document CHEMBL4823244, “Synthesis of norisoboldine derivatives and bioactivity assay for inducing the generation of regulatory T cells” (Bioorg Med Chem Lett, 2021).
Activity calls are given as the source filed them. The calls are words filed in the database; no cut-off is given here.

Key:
[1] = system: Mus musculus; test: Antiinflammatory activity in DSS-induced ulcerative colitis mouse model assessed as reduction in DAI score at 200 mg/kg, po administered for 10 consecutive days; type: functional, organism-based; conditions: time 10.0 day
[2] = system: Mus musculus; test: Antiinflammatory activity in DSS-induced ulcerative colitis mouse model assessed as reduction in MPO activity at 200 mg/kg, po administered for 10 consecutive days; type: functional, organism-based; conditions: time 10.0 day
[3] = system: Mus musculus; test: Antiinflammatory activity in DSS-induced ulcerative colitis mouse model assessed as protection against colon destruction at 200 mg/kg, po administered for 10 consecutive days by HE staining based histopathological analysis; type: functional, organism-based; conditions: time 10.0 day
[4] = system: Mus musculus; test: Antiinflammatory activity in DSS-induced ulcerative colitis mouse model assessed as rescue of colon length shortening at 200 mg/kg, po administered for 10 consecutive days; type: functional, organism-based; conditions: time 10.0 day
[5] = system: Mus musculus; test: Induction of Treg cell differentiation in DSS- induced ulcerative colitis mouse model assessed as number of Treg cells in colonic lamina proprias at 200 mg/kg, po administered for 10 consecutive days by flow cytometry analysis (Rvb= 7.97%); type: functional; conditions: time 10 day
[6] = system: Mus musculus; test: Induction of Treg cell differentiation in DSS- induced ulcerative colitis mouse model assessed as number of Treg cells in spleens at 200 mg/kg, po administered for 10 consecutive days by flow cytometry analysis (Rvb= 6.49%); type: functional; conditions: time 10 day
[7] = system: Mus musculus; test: Induction of Treg cell differentiation in DSS- induced ulcerative colitis mouse model assessed as number of Treg cells in mesenteric lymph nodes at 200 mg/kg, po administered for 10 consecutive days by flow cytometry analysis (Rvb= 7.52%); type: functional; conditions: time 10 day
[8] = system: Mus musculus; test: Antiinflammatory activity in DSS-induced ulcerative colitis mouse model assessed as protection against inflammation of colons at 200 mg/kg, po administered for 10 consecutive days by HE staining based histopathological analysis; type: functional, organism-based; conditions: time 10.0 day

Nc1ccc(O)c(C(=O)O)c1 [MESALAMINE] was tested, and the Activity [1] was “Active”, the Activity [2] was “Active” and the Activity [3] was “Active”. The Activity [4] was “Active”, the Activity [5] was 9.59% and the Activity [6] was 5.9%. For the same compound, the Activity [7] was 7.7% and the Activity [8] was “Active”.
